Reference: paper PMC5845165, “Pharmacokinetic Study of 7 Compounds Following Oral Administration of Fructus Aurantii to Depressive Rats” (Frontiers in Pharmacology, 2018)

Legend:
[1] = tested on: rats undergoing the forced swimming test (FST); assay: Forced swimming test (FST), immobility time after acute oral treatment; format: in vivo, Sprague–Dawley rats; settings: Fluoxetine 20 mg/kg, single oral dose 0.5 h before test (Figure 1A); p < 0.05 vs vehicle
Procedure: ZQ lyophilized powder or fluoxetine (Eli Lilly, United States) was dissolved with saline. To evaluate dose-dependent effects, ZQ (5, 10, 20 g/kg) or fluoxetine (20 mg/kg) was orally administered as a single dosage 0.5 h before the test. To study the precise relationship between antidepressant effects and pharmacokinetics, ZQ (20 g/kg) was orally administered as a single dose 0.5, 1, 2, or 4 h before the test. Similarly, vehicle rats were orally administered an equal volume of saline using the identical procedure.
The swimming tests were conducted according to a previously described method ([Flores-Burgess et al., 2017]) with minor modifications. In brief, all experiments were operated between 12:00 h and 15:00 h in the light cycle. Each rat was individually put into a vertical glass cylinder with a diameter of 20 cm, water depth of 30 cm and water temperature of 25°C. A 15-min forced swimming test was conducted 24 h before the 5-min test. Each rat was deemed to be immobile when it stopped scrabbling, remained floating stilly in the water and only made necessary struggling to maintain its head over water. The total duration of immobility was recorded during the 5-min test.

[2] = Pharmacokinetic study in plasma of acute depressive rats after oral ZQ extract (LC-MS/MS); format: in vivo, Sprague–Dawley rats; settings: oral ZQ extract 20 g/kg; for AUC / AUC(0-t) / Cmax / Tmax / half-life: Sprague-Dawley, rat; for AUC: AUC0-∞; for half-life: male, po, 20 g/kg
Procedure: (§1) Sample (200 μL) and 10 μL of mixed IS solution containing sulfamethoxazole (754 ng/mL) and honokiol (274 ng/mL) was added to Eppendorf tubes and extracted with 1 mL acetonitrile. The mixed solution was vortexed for 3 min and centrifuged at 10000 rpm for 10 min at 4°C to acquire the supernatant. The supernatant (800 μL) was moved to a clean Eppendorf tube, and then desiccated under a flow of nitrogen at 40°C. Finally, the residue was redissolved in 100 μL acetonitrile/water (90:10, v/v) with vortex-mixing for 3 min and centrifuged at 13000 rpm for 10 min. A 10 μL aliquot of the sample was injected into the LC/MS/MS system for analysis.
All of the rats were subjected to FST for 24 h before oral administration of the ZQ extract (20 g/kg). Plasma samples (about 0.5 mL) were gathered in a heparinized 1.5 mL Eppendorf tube from the venous plexus of the eye socket at 0.083, 0.25, 0.5, 0.75, 1.0, 1.5, 2.0, 3.0, 4.0, 6.0, 8.0, 12.0, and 24.0 h under anesthesia. Each sample was immediately centrifuged at 10000 rpm for 15 min to acquire the plasma. At last, the plasma was immediately placed at -80°C until measure.
All data were expressed as the mean ± SD. The plasma concentration of the 7 compounds during the experiment was calculated according to the daily calibration curve. The pharmacokinetic parameters, including Cmax (the peak drug plasma concentration), Tmax (the time to Cmax), AUC0-t (the area under the plasma concentration-time curve from 0 to time), AUC0-∞ (the area under the plasma concentration-time curve from 0 to time infinity), and t1/2 (the elimination half-life) were calculated by performing a non-compartment model using WinNonlin Professional Edition Version 2.1 (Pharsight Corporation, Sunnyvale, CA, United States). The immobile time in the FST test was evaluated by one-way ANOVA. Statistical significance was denoted at p < 0.05. Statistical analysis was operated by GraphPad Prism 5 software.

[3] = Qualitative LC/MS-MS identification in hippocampus and cortex after oral ZQ extract; format: in vivo, Sprague–Dawley rats; settings: acute depressive rats, 0.5 h after oral ZQ extract 20 g/kg
Procedure: To identify the main active compounds of ZQ in target tissue, six rats subjected to FST were sacrificed under anesthesia 0.5 h after oral administration of ZQ extract (20 g/kg), and then the hippocampal and cortex tissue was separated rapidly from the brain on an ice tray and stored at -80°C. All tissues (∼50.0 mg) were homogenized with 1.5 mL of ice-cold 0.9% saline.
as §1

[4] = Stability of the analytes in rat plasma (QC samples); format: in vitro ADME; settings: deviation from nominal conc
Procedure: The stabilities of the 7 analytes in rat plasma was evaluated by assaying six replicates of QC samples at low, middle, and high concentrations in practical experimental conditions: samples post-preparation stored in auto-sampler condition for 12 h, and storage at -80°C for 1 month. The freeze- thaw stability was determined after the experience of three freeze-thaw cycles (from -80°C to room temperature). Samples were identified as stable if the accuracy bias was within 15.0% of the nominal concentration.

[5] = parameters: method as in Tong et al., 2012; settings: oral ZQ 3.2 g/kg, ref Tong et al., 2012; cited from earlier work
[6] = plasma, male SD rats subjected to FST, mean ± SD, n = 6

AUC [2, 6] [ng·h/mL] | AUC(0-t) [2, 6] [ng·h/mL] | Cmax [2, 6] [ng/mL] | Tmax [2, 6] [h] | half-life [2, 6] [h] | absorption into hippocampus and cortex (qualitative) [3] | RE, -80°C for 1 month ([4]; high QC level) [%] | RE, Room temperature for 12 h ([4]; high QC level) [%] | RE, Three freeze-thaw cycles ([4]; high QC level) [%] | RE, -80°C for 1 month ([4]; low QC level) [%] | RE, Room temperature for 12 h ([4]; low QC level) [%] | RE, Three freeze-thaw cycles ([4]; low QC level) [%] | RE, -80°C for 1 month ([4]; middle QC level) [%] | RE, Room temperature for 12 h ([4]; middle QC level) [%] | RE, Three freeze-thaw cycles ([4]; middle QC level) [%] | AUC0-∞ relative to other flavonoids ([2]; depressive rats) | T1/2 [2, 6] [h] | SMILES | immobility time in the FST [1] [s] | AUC0-∞ in healthy rats compared with this study [5]
 |  |  |  |  |  |  |  |  |  |  |  |  |  |  |  |  | CNCCC(Oc1ccc(C(F)(F)F)cc1)c1ccccc1 (stereo not drawn) [Fluoxetine, fluoxetine] | 116.07 ± 28.65 | 
179 ± 43.9 | 136 ± 23.7 | 46 ± 7.32 | 0.42 ± 0.13 | 2.93 ± 0.88 | absorbed into the hippocampus and cortex | 0.02 | 4.88 | -1.62 | 6.36 | -1.88 | 4.08 | 4.15 | 0.91 | 5.80 |  |  | COc1ccc([C@@H]2CC(=O)c3c(O)cc(O[C@@H]4O[C@H](CO[C@@H]5O[C@@H](C)[C@H](O)[C@@H](O)[C@H]5O)[C@@H](O)[C@H](O)[C@H]4O)cc3O2)cc1O [Hesperidin, hesperidin] |  | 
1710 ± 350 | 1480 ± 259 | 222 ± 53.9 | 1.25 ± 0.42 | > 7.3 | absorbed into the hippocampus and cortex | 9.41 | 7.34 | 3.48 | 6.97 | 11.26 | 11.95 | 7.29 | 2.66 | -13.99 | at least fivefold higher | 7.31 ± 1.51 | COc1ccc2ccc(=O)oc2c1CC(O)C(C)(C)O (stereo not drawn) [Meranzin hydrate] |  | 
226 ± 64.9 | 188 ± 38.9 | 78.1 ± 22.2 | 0.42 ± 0.13 | 4.37 ± 1.19 | absorbed into the hippocampus and cortex | 3.14 | -2.56 | -2.59 | -7.39 | 5.64 | -8.95 | -6.00 | 10.67 | -4.45 |  |  | O=C1C[C@@H](c2ccc(O)cc2)Oc2cc(O)cc(O)c21 [Naringenin, naringenin] |  | higher than the data obtained in our experiment
312 ± 89.5 | 293 ± 92 | 104 ± 18.8 | 0.42 ± 0.13 | 1.67 ± 0.57 | absorbed into the hippocampus and cortex | 4.57 | 5.94 | 0.56 | 12.29 | 5.84 | 9.33 | 0.21 | 6.83 | 4.34 |  |  | C[C@@H]1O[C@@H](O[C@H]2[C@H](Oc3cc(O)c4c(c3)O[C@H](c3ccc(O)cc3)CC4=O)O[C@H](CO)[C@@H](O)[C@@H]2O)[C@H](O)[C@H](O)[C@H]1O [Naringin, naringin] |  | higher than the data obtained in our experiment
44.9 ± 9.99 | 42.6 ± 9.64 | 31.1 ± 8.83 | 0.33 ± 0.13 | 1.49 ± 0.42 | absorbed into the hippocampus and cortex | 3.03 | 5.53 | 7.94 | 8.49 | 12.43 | 9.69 | 7.57 | 1.84 | 8.89 |  |  | C[C@@H]1O[C@@H](OC[C@H]2O[C@@H](Oc3cc(O)c4c(c3)O[C@H](c3ccc(O)cc3)CC4=O)[C@H](O)[C@@H](O)[C@@H]2O)[C@H](O)[C@H](O)[C@H]1O [Narirutin, narirutin] |  | 
239 ± 95.6 | 234 ± 87.3 | 90.8 ± 48.5 | 0.29 ± 0.1 | 2.02 ± 0.77 | absorbed into the hippocampus and cortex | 2.03 | 10.82 | -0.30 | 3.31 | -5.80 | 7.23 | 3.13 | 7.28 | 5.88 |  |  | COc1ccc([C@@H]2CC(=O)c3c(O)cc(O[C@@H]4O[C@H](CO)[C@@H](O)[C@H](O)[C@H]4O[C@@H]4O[C@@H](C)[C@H](O)[C@@H](O)[C@H]4O)cc3O2)cc1O [Neohesperidin, neohesperidin] |  | higher than the data obtained in our experiment
153 ± 40 | 151 ± 40.6 | 53.9 ± 14.3 | 0.38 ± 0.14 | 1.28 ± 0.87 | absorbed into the hippocampus and cortex | -1.14 | 4.48 | -6.73 | -9.94 | -4.37 | -7.88 | -8.19 | 5.03 | -7.62 |  |  | COc1ccc(-c2cc(=O)c3c(OC)c(OC)c(OC)c(OC)c3o2)cc1OC [Nobiletin, nobiletin] |  | 
